Data on 19 compounds can be found in patent publication US6610677B2, “Pyrazole compounds useful as protein kinase inhibitors” (Vertex Pharmaceuticals Incorporated, priority 2000, dated 2003).

Molecules are shown by their SMILES. Some results are limits rather than exact numbers.

A word on the Ki: it is the equilibrium dissociation constant of an inhibitor or competing ligand from its target. As usually defined, the melting point is the temperature of the solid-liquid transition.

One series deals with T1, human Src kinase (Homo sapiens, UniProt P12931).
T1 construct: full length recombinant human Src kinase; purchased Upstate Biotechnology 14-117; host or cells: baculo viral cells (baculovirus expression system)
T1 sequence (P12931 whole entry): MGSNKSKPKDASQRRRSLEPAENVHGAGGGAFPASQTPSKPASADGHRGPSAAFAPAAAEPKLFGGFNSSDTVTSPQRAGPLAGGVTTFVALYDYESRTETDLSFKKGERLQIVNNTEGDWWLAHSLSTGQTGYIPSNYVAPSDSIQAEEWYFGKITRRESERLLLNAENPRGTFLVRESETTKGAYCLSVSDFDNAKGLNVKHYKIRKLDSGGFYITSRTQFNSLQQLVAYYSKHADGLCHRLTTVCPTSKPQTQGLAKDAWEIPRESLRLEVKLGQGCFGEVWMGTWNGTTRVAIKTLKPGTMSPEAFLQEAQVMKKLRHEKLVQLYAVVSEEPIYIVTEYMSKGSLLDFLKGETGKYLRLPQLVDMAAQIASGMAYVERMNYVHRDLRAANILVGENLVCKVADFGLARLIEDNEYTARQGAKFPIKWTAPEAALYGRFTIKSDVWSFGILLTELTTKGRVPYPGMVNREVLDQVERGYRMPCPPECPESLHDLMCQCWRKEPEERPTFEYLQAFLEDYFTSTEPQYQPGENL
In words: SRC inhibition assay (radioactivity-based or spectrophotometric assay). As to conditions: assay A or B not specified; read-out: Ki value on SRC. It is filed as biochemical. The method, then:
The compounds were evaluated as inhibitors of human Src kinase using either a radioactivity-based assay or spectrophotometric assay. The compounds were assayed as inhibitors of full length recombinant human Src kinase (from Upstate Biotechnology, cat. no. 14-117) expressed and purified from baculo viral cells. […] P-0275). […] In a typical assay, all the reaction components with the exception of ATP were pre-mixed and aliquoted into assay plate wells. Inhibitors dissolved in DMSO were added to the wells to give a final DMSO concentration of 2.5%. The assay plate was incubated at 30° C. for 10 min before initiating the reaction with ^33P-ATP. After 20 min of reaction, the reactions were quenched with 150 μl of 10% trichloroacetic acid (TCA) containing 20 mM Na3PO4. The quenched samples were then transferred to a 96-well filter plate (Whatman, UNI-Filter GF/F Glass Fiber Filter, cat no. 7700-3310) installed on a filter plate vacuum manifold. Filter plates were washed four times with 10% TCA containing 20 mM Na3PO4 and then 4 times with methanol. 200 μl of scintillation fluid was then added to each well. The plates were sealed and the amount of radioactivity associated with the filters was quantified on a TopCount scintillation counter. The radioactivity incorporated was plotted as a function of the inhibitor concentration. The data was fitted to a competitive inhibition kinetics model to get the Ki for the compound. The ADP produced from ATP by the human recombinant Src kinase-catalyzed phosphorylation of poly Glu-Tyr substrate was quanitified using a coupled enzyme assay (Fox et al (1998) Protein Sci 7, 2249). In this assay one molecule of NADH is oxidised to NAD for every molecule of ADP produced in the kinase reaction. The disappearance of NADH can be conveniently followed at 340 nm. […] In a typical assay, all the reaction components with the exception of ATP were pre-mixed and aliquoted into assay plate wells. Inhibitors dissolved in DMSO were added to the wells to give a final DMSO concentration of 2.5%. […] The absorbance change at 340 nm with time, the rate of the reaction, was monitored on a molecular devices plate reader. The data of rate as a function of the inhibitor concentration was fitted to compettive inhibition kinetics model to get the Ki for the compound.

The next series deals with T2, GSK-3β (AA 1-420) (Homo sapiens, UniProt P49841).
T2 construct: GSK-3β (AA 1-420)
T2 sequence (P49841 whole entry, the tested form may be a part): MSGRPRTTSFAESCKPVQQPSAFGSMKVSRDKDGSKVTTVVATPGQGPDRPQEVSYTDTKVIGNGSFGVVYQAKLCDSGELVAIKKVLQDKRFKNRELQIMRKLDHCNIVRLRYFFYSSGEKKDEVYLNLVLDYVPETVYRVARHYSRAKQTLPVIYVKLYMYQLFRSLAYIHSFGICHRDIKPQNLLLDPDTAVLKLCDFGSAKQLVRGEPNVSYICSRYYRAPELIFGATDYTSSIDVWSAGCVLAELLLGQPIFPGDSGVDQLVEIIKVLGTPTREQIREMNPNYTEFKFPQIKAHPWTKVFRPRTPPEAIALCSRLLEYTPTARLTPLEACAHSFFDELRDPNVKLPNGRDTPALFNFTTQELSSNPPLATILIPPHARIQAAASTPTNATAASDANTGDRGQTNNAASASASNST
In words: Ki determination for the inhibition of GSK-3 (coupled enzyme system). As to conditions: 20 μM ATP, 300 μM peptide, 20 nM GSK-3β, 30° C. The class given is biochemical. An outline of the steps:
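Ki values come from reaction rates over 10 min at 30 °C as a function of inhibitor concentration (12-point titration, 0.002–30 μM, 10 min preincubation). GSK-3β (AA 1-420, 20 nM) phosphorylated 300 μM primed peptide with 20 μM ATP; ADP formation followed by coupled NADH oxidation, pH 7.5.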

For a further series, the target named is T3, Aurora-2 (Homo sapiens, UniProt O14965).
T3 sequence (O14965 1-403): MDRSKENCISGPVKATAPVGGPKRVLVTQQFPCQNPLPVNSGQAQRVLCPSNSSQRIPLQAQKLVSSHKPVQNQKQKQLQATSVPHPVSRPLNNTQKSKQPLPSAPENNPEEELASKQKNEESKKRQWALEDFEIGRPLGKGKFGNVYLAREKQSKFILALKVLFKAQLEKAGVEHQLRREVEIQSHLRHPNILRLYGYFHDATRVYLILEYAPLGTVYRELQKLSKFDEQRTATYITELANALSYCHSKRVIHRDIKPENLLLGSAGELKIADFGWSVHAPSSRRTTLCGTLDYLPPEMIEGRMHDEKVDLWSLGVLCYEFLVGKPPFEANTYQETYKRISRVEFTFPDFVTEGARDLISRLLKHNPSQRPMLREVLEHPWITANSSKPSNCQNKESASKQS
In words: Ki determination for the inhibition of Aurora-2 (coupled enzyme assay). As to conditions: 70 nM Aurora-2, peptide LRRASLG, 30° C. The class given is biochemical. A digest of the protocol: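 Ki came from reaction rates plotted against inhibitor concentration, with rates taken as A340 decrease over 5 min at 30° C. Enzyme (70 nM final) was added after 10 min compound preincubation; stock buffer held […], 800 μM LRRASLG, PK/LDH coupling, pH 7.5.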

The target of another series is activated ERK2 (Homo sapiens, UniProt P28482). In words: ERK inhibition assay (spectrophotometric coupled-enzyme assay). The class given is biochemical. As to conditions: 10 nM activated ERK2, 65 μM ATP, 200 μM erktide; read-out: Ki value for ERK-2. The method, then: Compounds were assayed for the inhibition of ERK2 by a spectrophotometric coupled-enzyme assay (Fox et al (1998) Protein Sci 7, 2249). In this assay, a fixed concentration of activated ERK2 (10 nM) was incubated with various concentrations of the compound in DMSO (2.5%) for 10 min. at 30° C. in 0.1 M HEPES buffer, pH 7.5, containing 10 mM MgCl2, 2.5 mM phosphoenolpyruvate, 200 μM NADH, 150 μg/mL pyruvate kinase, 50 μg/mL lactate dehydrogenase, and 200 μM erktide peptide. The reaction was initiated by the addition of 65 μM ATP. The rate of decrease of absorbance at […] was monitored. The IC50 was evaluated from the rate data as a function of inhibitor concentration.
activated ERK2, sequence (P28482 whole entry): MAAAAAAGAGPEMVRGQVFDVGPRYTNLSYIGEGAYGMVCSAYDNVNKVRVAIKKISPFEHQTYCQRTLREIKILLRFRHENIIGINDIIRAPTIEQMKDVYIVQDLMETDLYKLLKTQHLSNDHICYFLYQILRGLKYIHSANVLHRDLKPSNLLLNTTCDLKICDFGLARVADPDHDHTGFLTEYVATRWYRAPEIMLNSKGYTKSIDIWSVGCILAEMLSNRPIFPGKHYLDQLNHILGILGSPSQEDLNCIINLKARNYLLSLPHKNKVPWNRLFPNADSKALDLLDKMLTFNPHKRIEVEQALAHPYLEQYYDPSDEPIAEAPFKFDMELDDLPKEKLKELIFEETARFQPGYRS

Regarding `Cc1cc(Nc2nc(-c3ccc(Br)cc3)nc3ccccc23)[nH]n1` [III-34, [2-(4-Bromophenyl)-quinazolin-4-yl]-(5-methyl-2H-pyrazol-3-yl)-amine], the melting point was in the range of 262 to 265 °C. In addition, at human Src kinase, the Ki was under 100 nM. Moreover, the inhibitory constant (Ki) on GSK-3β (AA 1-420) was under 100 nM. The compound further returned an inhibition constant Ki at Aurora-2 of under 100 nM.

For the compound `Cc1cc(Nc2nc(-c3ccc(Cl)cc3)nc3ccccc23)[nH]n1` [III-35, [2-(4-Chlorophenyl)-quinazolin-4-yl]-(5-methyl-2H-pyrazol-3-yl)-amine], the melting point is over 300 °C. On human Src kinase, the inhibitory constant (Ki) was under 100 nM. The compound further yielded a Ki on GSK-3β (AA 1-420) of under 100 nM. Further, at Aurora-2, the Ki is under 100 nM.

`Cc1cc(Nc2nc(-c3ccc(C#N)cc3)nc3ccccc23)[nH]n1` [III-37, [2-(4-Cyanophenyl)-quinazolin-4-yl]-(5-methyl-2H-pyrazol-3-yl)-amine] displayed a melting point of 263 °C. Besides, at human Src kinase, the Ki was under 100 nM. The same compound showed a Ki on GSK-3β (AA 1-420) of under 100 nM. In addition, the Ki on Aurora-2 was under 100 nM.

The compound `Cc1cc(Nc2nc(-c3cccc(I)c3)nc3ccccc23)[nH]n1` [III-38, [2-(3-Iodophenyl)-quinazolin-4-yl]-(5-methyl-2H-pyrazol-3-yl)-amine] displayed a melting point of 234 to 235 °C. The Ki on human Src kinase is under 100 nM. The Ki at GSK-3β (AA 1-420) was under 100 nM. This compound yielded a Ki at Aurora-2 of under 100 nM.

Turning to `CCSc1ccc(-c2nc(Nc3cc(C)n[nH]3)c3ccccc3n2)cc1` [III-39, [2-(4-Ethylsulfanylphenyl)-quinazolin-4-yl]-(5-methyl-2H-pyrazol-3-yl)-amine], the melting point fell in the range of 229 to 231 °C. Further, the Ki at human Src kinase is under 100 nM. The compound also yielded an inhibition constant (Ki) on GSK-3β (AA 1-420) of under 100 nM. Besides, the inhibition constant Ki at Aurora-2 was under 100 nM.

Take `COc1cccc(-c2nc(Nc3cc(C)n[nH]3)c3ccccc3n2)c1` [III-45, [2-(3-Methoxyphenyl)-quinazolin-4-yl]-(5-methyl-2H-pyrazol-3-yl)-amine]: the melting point amounted to 226 °C. The inhibition constant Ki at human Src kinase was under 100 nM. At GSK-3β (AA 1-420), this compound registered an inhibitory constant (Ki) of under 100 nM. At Aurora-2, this compound registered an inhibitory constant (Ki) of under 100 nM.

The compound `C#Cc1cccc(-c2nc(Nc3cc(C)n[nH]3)c3ccccc3n2)c1` [III-49, [2-(3-Ethynylphenyl)-quinazolin-4-yl]-(5-methyl-2H-pyrazol-3-yl)-amine] registered a melting point of 204 to 207 °C. The Ki at human Src kinase is under 100 nM. This compound registered an inhibitory constant (Ki) at GSK-3β (AA 1-420) of under 100 nM. On Aurora-2, the Ki is under 100 nM.

Compound `c1ccc(-c2nc(Nc3ccn[nH]3)c3ccccc3n2)cc1` [III-63, (2-Phenyl-quinazolin-4-yl)-(2H-pyrazol-3-yl)-amine] returned a melting point of 247 to 249 °C. The compound also gave a Ki at GSK-3β (AA 1-420) of under 100 nM. The compound also returned an inhibition constant Ki on Aurora-2 of under 100 nM. For the same compound, the inhibition constant Ki on activated ERK2 was in the range of 1000 to 12000 nM.

The compound `CCc1cc(Nc2nc(-c3ccccc3)nc3ccccc23)[nH]n1` [III-65] showed a melting point of 221 to 222 °C. In addition, the inhibition constant Ki on human Src kinase is under 100 nM. For the same compound, the Ki at GSK-3β (AA 1-420) is under 100 nM. For the same compound, at Aurora-2, the inhibition constant Ki was under 100 nM.

Regarding `CCCc1cc(Nc2nc(-c3ccccc3)nc3ccccc23)[nH]n1` [III-66, (2-Phenyl-quinazolin-4-yl)-(5-propyl-2H-pyrazol-3-yl)-amine], the melting point is 204 to 205 °C. Further, the inhibition constant Ki on human Src kinase was under 100 nM. Also, the inhibition constant (Ki) at GSK-3β (AA 1-420) was under 100 nM. This compound yielded a Ki at Aurora-2 of under 100 nM.

In the case of `c1ccc(-c2nc(Nc3cc(C4CCCC4)n[nH]3)c3ccccc3n2)cc1` [III-70, (5-Cyclopentyl-2H-pyrazol-3-yl)-(2-phenyl-quinazolin-4-yl)-amine], the melting point was 240 to 241 °C. For the same compound, the inhibitory constant (Ki) on human Src kinase was under 100 nM. This compound also gave a Ki at GSK-3β (AA 1-420) of under 100 nM. On Aurora-2, this compound returned a Ki of under 100 nM.

The compound `OCCCc1cc(Nc2nc(-c3ccccc3)nc3ccccc23)[nH]n1` [III-76, [5-(3-Hydroxyprop-1-yl)-2H-pyrazol-3-yl]-(2-phenyl-quinazolin-4-yl)-amine] showed a melting point of 164 to 165 °C. The Ki at human Src kinase is under 100 nM. The compound further came in with a Ki on GSK-3β (AA 1-420) of under 100 nM. This compound also came in with an inhibition constant Ki on Aurora-2 of under 100 nM.

In turn, `c1ccc(COCCCc2cc(Nc3nc(-c4ccccc4)nc4ccccc34)[nH]n2)cc1` [III-78, [5-(3-Benzyloxyprop-1-yl)-2H-pyrazol-3-yl]-(2-phenyl-quinazolin-4-yl)-amine] showed a melting point of 177 to 178 °C. The inhibition constant (Ki) at human Src kinase is under 100 nM. This compound also registered a Ki on GSK-3β (AA 1-420) of 100 to 1000 nM. Further, the Ki on Aurora-2 is under 100 nM.

`Cc1cc(Nc2nc(N3CCCCC3)nc3ccccc23)[nH]n1` [III-108, (5-Methyl-2H-pyrazol-3-yl)-(2-piperidin-1-yl-quinazolin-4-yl)-amine] came in with a melting point of 294 °C. The compound further showed an inhibitory constant (Ki) on GSK-3β (AA 1-420) of under 100 nM. Besides, the Ki at Aurora-2 is under 100 nM. Also, the inhibitory constant (Ki) at activated ERK2 is 1000 to 12000 nM.

For `Cc1cc(Nc2nc(N3CCCCCC3)nc3ccccc23)[nH]n1` [III-109], the melting point amounted to 269 °C. For the same compound, on GSK-3β (AA 1-420), the Ki was under 100 nM. This compound returned a Ki on Aurora-2 of under 100 nM. Besides, on activated ERK2, the Ki is under 1000 nM.

As to `CC1CCN(c2nc(Nc3cc(C4CC4)n[nH]3)c3ccccc3n2)CC1` [III-111, (5-Cyclopropyl-2H-pyrazol-3-yl)-[2-(4-methylpiperidin-1-yl)-quinazolin-4-yl]-amine], the inhibition constant Ki at GSK-3β (AA 1-420) is under 100 nM; on Aurora-2, under 100 nM; at activated ERK2 it was under 1000 nM.

In turn, `OC1(c2ccccc2)CCN(c2nc(Nc3cc(C4CC4)n[nH]3)c3ccccc3n2)CC1` [III-115, (5-Cyclopropyl-2H-pyrazol-3-yl)-[2-(4-hydroxy-4-phenylpiperidin-1-yl)-quinazolin-4-yl]-amine] showed a melting point of 131 °C. Besides, the Ki on GSK-3β (AA 1-420) lay within 100 to 1000 nM. Besides, the Ki at Aurora-2 was under 100 nM. In addition, the Ki on activated ERK2 was under 1000 nM.

For the compound `c1ccc2c(Nc3cc(C4CC4)n[nH]3)nc(N3CCCCCC3)nc2c1` [III-117], the melting point was 199 to 200 °C. The compound also showed an inhibitory constant (Ki) at GSK-3β (AA 1-420) of under 100 nM. Moreover, on Aurora-2, the Ki is under 100 nM. Besides, the Ki on activated ERK2 is under 1000 nM.

Compound `c1ccc2c(c1)CCN(c1nc(Nc3cc(C4CC4)n[nH]3)c3ccccc3n1)C2` [III-118, (5-Cyclopropyl-2H-pyrazol-3-yl)-[2-(3,4-dihydro-1H-isoquinolin-2-yl)-quinazolin-4-yl]-amine] showed a melting point of 182 to 184 °C. This compound also displayed an inhibition constant (Ki) at GSK-3β (AA 1-420) of under 100 nM. In addition, the Ki on Aurora-2 was under 100 nM. Also, on activated ERK2, the Ki was under 1000 nM.
